pEC50: −log10 of the molar value.
These molecules were tested against T1, RORgT (Homo sapiens, UniProt P51449) (assay: RORgT Gal4 Luciferase Reporter Gene Assay). Conditions: engineered Jurkat cells overexpressing RORgT (LBD or full length) with Gal4 Luc reporter; 18 hours at 37° C.; 40 μM to 0.67 nM; read-out: RORg_GAL4 EC50.
T1 construct: Gal4 (fusion partner); expressed in transfected cells; host or cells: engineered Jurkat cells (Jurkat pEx/Gal/hRORγ CLBD/HYG pG5luc/blast)
T1 sequence (P51449 267-516): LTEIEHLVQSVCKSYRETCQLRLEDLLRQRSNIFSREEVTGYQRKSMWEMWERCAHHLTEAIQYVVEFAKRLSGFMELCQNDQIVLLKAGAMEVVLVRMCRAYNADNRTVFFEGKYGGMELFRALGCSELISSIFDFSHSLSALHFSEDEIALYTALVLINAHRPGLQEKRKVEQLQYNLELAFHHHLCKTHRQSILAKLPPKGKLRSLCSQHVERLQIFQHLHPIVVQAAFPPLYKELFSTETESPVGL
Format: cell-based
Procedure, shortened: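 Cells exposed to compound 18 hours at 37° C, then lysed for luciferase luminescence. Inhibition of constitutive activity expressed as percent reduction of signal window relative to a control compound.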

In order of falling pEC50:
1. COc1ncc(Oc2c(Cl)cc(NC(=O)CN3CCN(S(C)(=O)=O)CC3)cc2Cl)cc1C(C)C [Example 17, N-(3,5-dichloro-4-((5-isopropyl-6-methoxypyridin-3-yl)oxy)phenyl)-2-(4-(methylsulfonyl)piperazin-1-yl)acetamide]  8.28
2. CC(c1cc(F)cc(Oc2c(Cl)ccc(C(=O)NCc3ccc(S(N)(=O)=O)cc3)c2Cl)c1)C(F)(F)F (centres unmarked) [Example 356]  7.77
3. CC(C)c1cc(F)cc(Oc2c(Cl)cc(NC(=O)Cc3cccc(S(C)(=O)=O)c3)cc2Cl)c1 [Example 328]  7.72
4. COc1ccc(Oc2c(Cl)ccc(C(=O)N(C)CC3(O)CCN(S(C)(=O)=O)CC3)c2Cl)cc1C(C)C [Example 64]  7.64
5. CCS(=O)(=O)N1CCN(CC(=O)Nc2cc(Cl)c(Oc3ccc(OC)c(C(C)C)c3)c(Cl)c2)CC1 [Example 313]  7.49
6. COc1ncc(Oc2c(Cl)cc(NC(=O)CC3CCN(S(=O)(=O)CCl)CC3)cc2Cl)cc1C(C)C [Example 127]  7.46
7. CCS(=O)(=O)N1CCC[C@H](CC(=O)Nc2cc(Cl)c(Oc3ccc(OC)c(C(C)C)c3)c(Cl)c2)C1 [Example 323]  7.04
8. COc1ccc(Oc2c(Cl)cc(NC(=O)CN3CC[C@H](NS(C)(=O)=O)C3)cc2Cl)cc1C(C)C [Example 165]  6.74
9. COc1ccc(Oc2c(Cl)cc(NC(=O)CCCS(N)(=O)=O)cc2Cl)cc1C(C)C [Example 282]  6.58
10. COc1ccc(Oc2c(Cl)cc(NC(=O)CCCc3ccccc3)cc2Cl)cc1C(C)C [Example 285]  6.55
11. COc1ccc(Oc2c(Cl)cc(NC(=O)C3CC3)cc2Cl)cc1C(C)C [Example 292]  6.03
